Experimental data published in ChEMBL document CHEMBL3301361, “Experimental in vitro DMPK and physicochemical data on a set of publicly disclosed compounds”.
In brackets after ≈: the same amount, converted by molar mass.

Legend:
[1] = in vitro; conditions: human, plasma
[2] = in vitro; conditions: human
[3] = in vitro; conditions: SD, HW or BN, rat, plasma
[4] = physchem; conditions: octan-1-ol/water
[5] = physchem; conditions: pH 7.4 buffer

SMILES	fraction unbound at 5 h ([1]; PPB)	microsomal CLint ([2]; liver microsomes)	fraction unbound at 5 h [3]	further results
CCCCCCc1nc2c(N)nc3ccccc3c2n1Cc1ccccc1	0.0036	< 3 µL/min/mg		
O=[N+]([O-])c1c(Nc2ccc(-n3cncn3)cc2)ncnc1N1CCC(Sc2ccccn2)CC1			0.0029	
O=C(NC1CC1)c1cc(-c2cccs2)on1	0.0768	38.9 µL/min/mg		logD ([4]; pH 7.4, LogD7.4): 2.54
O=C(Nc1cccc(Cl)c1)Nc1nnc(-c2ccncc2)s1			0.0046	
Cc1ccc(-c2nnc(Nc3ccc(C(=O)N(C)C)cc3)c3ccccc23)cc1S(=O)(=O)N(C)C			0.0209	
Cc1csc2c(N3CCN(C(=O)c4ccc(C(C)(C)C)cc4)CC3)ncnc12			0.0043	
COc1ccc(-c2nc(-c3ccccn3)no2)cc1			0.0544	
Fc1ccc(-c2cc(C(F)(F)F)nc(-n3cc(Cl)cn3)n2)cc1			0.0048	
Cc1ccc(S(=O)(=O)N(C)c2ccc3sc(C)nc3c2)cc1			0.0067	
O=C(NCCc1ccc(Cl)cc1)c1cccnc1			0.0854	
CCCC(=O)Nc1ccc(Cl)c(-c2nc3ncccc3o2)c1			0.0358	
CC(C)(C)OC(=O)NC[C@H]1CC[C@H](CNC(=O)c2cc(-c3ccc(CN)cc3)nc3ccccc23)CC1			0.0139	
COc1ccc(-c2ccc3nc(N)sc3c2)cn1	0.0383	7.76 µL/min/mg		logD ([4]; pH 7.4, LogD7.4): 3.2
c1nc(Cc2ccsc2)c[nH]1			0.371	
CCOc1ccc2oc(C(=O)NC(CCSC)c3nc4ccccc4[nH]3)c(C)c2c1 (stereo not drawn)			0.009	
N#Cc1ccc(F)c(-c2cc(C(F)(F)F)ccc2OCC(=O)O)c1	0.0293			logD ([4]; pH 7.4, LogD7.4): -0.16; microsomal CLint ([2]; microsomes): < 3 µL/min/mg
COc1ccnc(CCc2nc3c(C)ccnc3[nH]2)c1	0.197			logD ([4]; pH 7.4, LogD7.4): 2.1; microsomal CLint ([2]; microsomes): < 3 µL/min/mg
CN(C)CCC1CCN(c2cc(C(=O)NC[C@H]3CC[C@H](COC(=O)NC(C)(C)C)CC3)c3ccccc3n2)CC1			0.0328	
CC(C)(C)OC(=O)NC[C@H]1CC[C@H](CNC(=O)c2ccnc(-c3ccccc3)c2)CC1			0.0095	
CC(C)(C)OC(=O)NC[C@H]1CC[C@H](CNC(=O)c2cc(-c3ccncc3)nc3ccccc23)CC1			0.02	
CC(C)(C)OC(=O)NC[C@H]1CC[C@H](CNC(=O)c2cc(-c3cccc(CN)c3)nc3ccccc23)CC1			0.0171	
CN(C)CCn1cc(-c2cc(C(=O)NC[C@H]3CC[C@H](CNC(=O)OC(C)(C)C)CC3)c3ccccc3n2)cn1			0.0647	
CC(C)(C)OC(=O)NC[C@H]1CC[C@H](CNC(=O)c2cc(N3CCC(CCN)CC3)nc3ccccc23)CC1			0.0321	
CN(C)CCOC1CN(c2cc(C(=O)NC[C@H]3CC[C@H](CNC(=O)OC(C)(C)C)CC3)c3ccccc3n2)C1			0.129	
Cc1ccccc1Nc1nc(N)nc(C)c1Br			0.0752	
O=C(NCc1ccccc1Cl)c1cccnc1Oc1ccccc1	0.134	36 µL/min/mg		logD ([4]; pH 7.4, LogD7.4): 3.68

SMILES	fraction unbound at 5 h ([1]; PPB)	microsomal CLint ([2]; liver microsomes)	fraction unbound at 5 h [3]	further results
COc1ccc(OC)c(CNC(=O)c2cccnc2Oc2ccccc2)c1	0.002	43.5 µL/min/mg		logD ([4]; pH 7.4, LogD7.4): 3.52
Cc1ccc2c(c1)c(Sc1cccc(Cl)c1)c(C)n2CC(=O)O	0.0036	12 µL/min/mg		
Cc1c(S(=O)(=O)c2ccc(Cl)cc2)c2cc(F)ccc2n1CC(=O)O	0.0043	< 3 µL/min/mg		logD ([4]; pH 7.4, LogD7.4): -0.16
COc1cccc(S(=O)(=O)c2c(C)n(CC(=O)O)c3ccc(C)cc23)c1	0.0063	3 µL/min/mg		logD ([4]; pH 7.4, LogD7.4): -0.42
CC(C(=O)O[C@@H]1CC[N+](C)(C)C1)(c1ccccc1)C1CCCC1 (stereo partly drawn)			0.299	
CC(=O)N1CCN(c2nc(NCC(C)c3ccc(Cl)cc3)c3c(n2)C(=O)N(C(C)C)C3)CC1 (stereo not drawn)			0.142	
CC(=O)N1CCN(c2nc(NCc3ccc(OC(F)(F)F)cc3)c3c(n2)C(=O)N(C(C)C)C3)CC1			0.151	
CC(=O)N1CCN(c2nc3c(c(N(C)Cc4cc5ccccc5cn4)n2)CN(C(C)C)C3=O)CC1			0.339	
Cc1cc([C@H](O)[C@](C)(OCc2ccc(-c3ccccc3)cc2)C(=O)NO)no1	0.0328	15.8 µL/min/mg		logD ([4]; pH 7.4, LogD7.4): 2.88
CCNC(=O)Nc1sc2ccccc2c1C(=O)N1CCC(N2CCCC3(CCN(CC)C3=O)C2)CC1 (stereo not drawn)			0.17	
N=C(N)c1ccc2[nH]c(-c3n[nH]c(-c4ccccc4)c3O)nc2c1			0.119	
CN(Cc1ccc(-c2ccccc2S(N)(=O)=O)cc1)C(=O)[C@@H]1CCC[C@H]1C(=O)NCc1ccc(OC(F)(F)F)cc1			0.003	
Cc1ncc(-c2cccc3c2C[C@H](NC(=O)c2ccc(OCC(F)(F)F)nc2)CO3)cn1			0.0768	
CC(C)C(NC(=O)c1cc(Cl)ccc1C(F)(F)F)C(=O)c1ccc([N+](=O)[O-])cc1 (stereo not drawn)			0.024	
OCCNC(=S)NCc1cccc(Cl)c1F			0.16	
Cc1ccc2c(c1)c(-c1ccnc3c(F)cccc13)c(C)n2CC(=O)O	0.009	< 3 µL/min/mg		logD ([4]; pH 7.4, LogD7.4): 0.53
Cc1nccnc1-c1ccc(CC(=O)N[C@H](C)c2ccc(OCC(F)(F)F)cn2)cc1			0.17	
Cc1cc(-n2cnc3ccc(N[C@@H](C)c4ncc(F)cn4)nc32)n[nH]1			0.483	
O=C(NCc1ccc(OC(F)(F)F)cc1)C1c2ccccc2C(=O)N1CCc1ncccn1 (stereo not drawn)			0.129	
COc1ccccc1C(C#N)NC(=O)[C@@H]1CCCC[C@H]1C(=O)N1CCN(Cc2ccc(F)cc2)CC1 (stereo partly drawn)	0.051	127 µL/min/mg		logD ([4]; pH 7.4, LogD7.4): 3.57
O=C(NC[C@@H](O)CN1CCC(Oc2ccc(Cl)c(Cl)c2)CC1)c1cc(=O)[nH]c2ccccc12	0.0183	< 3 µL/min/mg		solubility thermodynamic [5]: 15.8 µM (≈ 7.75 µg/mL); logD ([4]; pH 7.4, LogD7.4): 3.48
C[S+]([O-])Cc1ccc(C(=O)Nc2cccnc2C(=O)NCC2CCOCC2)c2ccccc12 (stereo not drawn)			0.154	
C[S+]([O-])Cc1ccc(C(=O)Nc2nccnc2C(=O)NCC2CCC2)c2ccccc12 (stereo not drawn)			0.0988	
O=C(NCC1CCC1)c1nc(OCCOCCO)ccc1NC(=O)c1ccnc2ccccc12			0.03	
CC(=O)N1CCN(c2nc(N[C@H](C)c3cnc4ccccc4c3)c3c(n2)C(=O)N(C(C)C)C3)CC1			0.0119	
CS(=O)(=O)c1ccc(-c2nnc(/C=C/c3nnc(-c4ccc(C#N)cc4)o3)n2-c2ccccc2Cl)nc1	0.0633	< 3 µL/min/mg		logD ([4]; pH 7.4, LogD7.4): 2.66

SMILES	fraction unbound at 5 h ([1]; PPB)	microsomal CLint ([2]; liver microsomes)	fraction unbound at 5 h [3]	further results
C[C@@H](Oc1ccccc1-c1cccc([N+](=O)[O-])c1)C1=NCCN1			0.403	
CC[C@H](CO)Nc1nc(SCc2ccccc2)nc2nc(N)sc12	0.013	8.71 µL/min/mg		logD ([4]; pH 7.4, LogD7.4): 3.27
c1ccc(-c2[nH]nc3ccccc23)cc1	0.0307			logD ([4]; pH 7.4, LogD7.4): 3.79; microsomal CLint ([2]; microsomes): < 3 µL/min/mg
N=C(N)c1ccc2nc(-c3cccc(-c4ccccc4)c3O)[nH]c2c1			0.0139	
COc1ccc2c(c1)c(-c1ccnc3cc(Cl)ccc13)c(C)n2CC(=O)O	0.0031	4 µL/min/mg		logD ([4]; pH 7.4, LogD7.4): 1.16
O=C(NCC12CC3CC(CC(C3)C1)C2)c1cc(N2CCNCC2)ccc1Cl				solubility thermodynamic [5]: 224 µM (≈ 86.9 µg/mL); fraction unbound at 5 h [1]: 0.0268; logD ([4]; pH 7.4): 1.77; microsomal CLint ([2]; microsomes): 11 µL/min/mg
C[C@H](CO)Nc1nc(SCc2cccc(F)c2F)nc2nc(NC3CC3)sc12	0.0122	66 µL/min/mg		logD ([4]; pH 7.4, LogD7.4): 4.37
COc1cc2c(cc1OC)CN(CCc1ccc(NC(=O)c3cccc4c(=O)c5cccc(OC)c5[nH]c34)cc1)CC2			0.0179	
O=C(O)CSCC(=O)Nc1nc(-c2ccccc2)cs1	0.0097	17.8 µL/min/mg		
CC(=O)N[C@@H](Cc1ccccc1)C(=O)N[C@H]1CCCNC(=O)[C@H](CCCNC(=N)N)NC(=O)[C@H](Cc2c[nH]c3ccccc23)NC(=O)[C@@H](CC2CCCCC2)NC(=O)[C@@H]2CCCN2C1=O			0.163	
OCC(CO)Nc1nc(SCc2cccc(F)c2F)nc2nc(NC3CC3)sc12	0.051	46 µL/min/mg		logD ([4]; pH 7.4, LogD7.4): 3.11
Nc1nc2c(c(N3CC[C@@H](N)C3)n1)CCCc1ccccc1-2			0.437	
O=C1Nc2nc(-c3c(O)cccc3OCC3CC3)cc([C@@H]3CCCNC3)c2CO1			0.124	
O=C(COc1cccc(Cl)c1)NC1CN(Cc2ccn(-c3ccc(C(F)(F)F)cc3)c2)C1			0.0043	
COc1cc(C(C)C)c(Oc2cnc(N)nc2N)cc1I			0.0383	
O=C(CC12CC3CC(CC(C3)C1)C2)Nc1cccc2c(=O)n(C[C@H]3CCCN3)ccc12			0.151	
Cc1nc(C(F)(F)F)ccc1C(=O)Nc1ccc(Cl)c(-c2nc3ccccc3[nH]2)c1			0.0948	
N#CN=C(N)c1sc(Nc2ccccc2)nc1N	0.103	< 3 µL/min/mg		logD ([4]; pH 7.4, LogD7.4): 2.91
CC1=C(CC(=O)NCc2ccc(C(=N)N)cc2)C(=O)N(NS(=O)(=O)c2c(C)cccc2Cl)CC1			0.54	
N=C(N)c1cc2c(-c3ccccc3)cccc2s1	0.101	5 µL/min/mg		logD ([4]; pH 7.4, LogD7.4): 1.27
N#CC1=C2C(=NC1=O)c1cccc3c(N4CCSCC4)ccc2c13	0.0139	115 µL/min/mg		logD ([4]; pH 7.4, LogD7.4): 3.22
CN1CCC[C@@H]1Cc1c[nH]c2ccc(Nc3ncccc3[N+](=O)[O-])cc12			0.387	
CC(C)NC(=O)c1ccc2c(Nc3ccc(Cl)cc3)nc(N3CCOCC3)nc2c1	0.0051	< 3 µL/min/mg		logD ([4]; pH 7.4, LogD7.4): 2.78
C[C@@H]1CN(Cc2ccc(F)cc2)CCN1C(=O)COc1ccc(Cl)cc1NC(N)=O [BX 471 FREE BASE]		21 µL/min/mg		fraction unbound at 5 h [1]: 0.0205
CNCCC(Oc1ccccc1OC)c1ccccc1 (stereo not drawn) [NISOXETINE]	0.483	< 3 µL/min/mg		logD ([4]; pH 7.4, LogD7.4): 0.22
COc1cc(NC(C)CCCN)c2ncccc2c1 (stereo not drawn) [PRIMAQUINE]	0.403	< 3 µL/min/mg		
